Earlier results, collected in patent US20080280850A1, “Methods and Compositions for Treating Flaviviruses, Pestiviruses and Hepacivirus” (priority 2004, published 2008).

System: HCV

NC(=O)c1ncn([C@@H]2O[C@H](CO)[C@@H](O)[C@H]2O)n1 [Ribavirin, 1-[…]D-ribofuranosyl-1-1,2,4-triazole-3-carboxamide]
effect on serum levels of HCV-RNA (patients, monotherapy): does not lower serum levels of HCV-RNA
serum amino transferase levels reduced to normal, share of patients (ribavirin alone): 40%
